Experiments:
[1] = tested on: human prostate carcinoma epithelial cell line, 22Rv1; test: In vivo antitumor activity, combination with ATM inhibitor, 22Rv1 xenograft (Test Example 5); set-up: species or system mice; conditions: day 29
Method: All animal experiments were performed in accordance with the in-house guidelines of the Institutional Animal Care and Use Committee of Daiichi Sankyo Co., Ltd. The human prostate carcinoma epithelial cell line, 22Rv1 was purchased from American Type Culture Collection (ATCC) and cultured in RPMI 1640 Medium (ATCC modification) (Thermo Fisher Scientific) supplemented with 10% heat-inactivated fetal bovine serum (FBS, cytiva) at 37° C. in a humidified 5% CO2 atmosphere. On the day of cancer cell inoculation, 22Rv1 cells were trypsinized, washed with D-PBS, and then resuspended in D-PBS at a concentration of 5×10^7 cells/mL. Castrated male NSG mice (NOD.Cg-Prkdc^scid Il2rg^tm1Wj1/SzJ, 6 weeks of age, The Jackson Laboratory Japan, Inc.) were subcutaneously inoculated with 22Rv1 cells (5×10^6 cells/mouse) into the right flank. […] Vehicle control • Group 2: AZD1390 20 mg/kg • Group 3: […] A (10 mmol/L histidine buffer [pH5.9] containing 9% sucrose and 0.02% polysorbate 20) to prepare a 0.3 mg/mL dosing solution. To prepare a 2.0 mg/mL dosing solution, AZD1390 was dissolved in Soln. […] The volume of each dosing solution to be administered was calculated from the individual body weight measured on the day of dosing. […] Tumor length and tumor width were measured with a digital caliper. Tumor volume and tumor growth inhibition (TGI) were calculated by the following formulas: […] […]

[2] = tested on: human prostate carcinoma epithelial cell line, 22Rv1; test: In vivo antitumor activity, combination with ATR inhibitor, 22Rv1 xenograft (Test Example 4); set-up: species or system mice; conditions: day 24
Method: All animal experiments were performed in accordance with the in-house guidelines of the Institutional Animal Care and Use Committee of Daiichi Sankyo Co., Ltd. […] Vehicle control • Group 2: AZD6738 25 mg/kg • Group 3: […] A (10 mmol/L histidine buffer [pH5.9] containing 9% sucrose and 0.02% polysorbate 20) to prepare a 0.3 mg/mL dosing solution. […] Then, propylene glycol (40% [v/v] of total volume of the dosing solution) was added to the solution. After mixing with a magnetic stirrer well, water for injection (50% [v/v] of total volume of the dosing solution) was added to the solution, and then the solution was further mixed well with a magnetic stirrer. The volume of each dosing solution to be administered was calculated based on the individual body weight measured on the day of dosing. Soln. […] Soln. […] Tumor length and tumor width were measured with a digital caliper. Tumor volume and tumor growth inhibition (TGI) were calculated by the following formulas: […] Dunnett's test was used to compare tumor volumes in monotherapy groups with those in the vehicle control and to compare tumor volumes in monotherapy groups with those in the combination group. […] The following calculation of TGI and statistical analyses were performed using data except for the excluded mouse in Group 4.

CC(C)n1c(=O)n(C)c2cnc3cc(F)c(-c4ccc(OCCCN5CCCCC5)nc4)cc3c21 [AZD1390]
tumor growth inhibition (TGI) ([1]; 22Rv1 in castrated male NSG mice, AZD1390 20 mg/kg orally, conjugate (1) 3 mg/kg iv days 0 and 14): 14% | tumor growth / antitumor activity compared with the vehicle control ([1]; monotherapies, Dunnett's test): no statistically significant difference in antitumor activity

C[C@@H]1COCCN1c1cc(C2([S@](C)(=N)=O)CC2)nc(-c2cc[nH]c3nccc2-3)n1 [AZD6738]
tumor growth inhibition (TGI) ([2]; 22Rv1 in castrated male NSG mice, AZD6738 25 mg/kg orally twice a day, conjugate (1) 3 mg/kg iv days 0 and 15): 29% | tumor growth compared with the vehicle control ([2]; monotherapies, Dunnett's test): significantly inhibited tumor growth
